Measured values: patent US20190008864A1, “PHARMACEUTICAL COMPOSITION CONTAINING GPR119 LIGAND AS EFFECTIVE INGREDIENT FOR PREVENTING OR TREATING NON-ALCOHOLIC STEATOHEPATITIS” (PHARMEDIX.CO., LTD., priority 2014, published 2019)

Key:
[1] = tested on: non-alcoholic steatohepatitis (NASH) animal models induced by methionine-choline deficient diet; assay: NASH animal model induced by methionine-choline deficient diet; assay type: in vivo, C57BL/6J mice; details: MCD diet 4 weeks, 10 and 30 mg/kg oral
Description: A liver fibrosis-inducing diet in the present invention is a methionine and choline-deficient (MCD) diet. Six-week-old male C57BL/6J mice (Central Lab. Animal Inc., Seoul, Korea) were acclimated to an experimental environment for one week while being fed solid food, and then randomly divided into a control group and an experimental group for the MCD diet using a randomized block design. The animal groups were fed for 4 weeks, and thus, liver fibrosis animal models were established. Liver fibrosis development was determined according to blood biochemical and histochemical analysis methods. The mice were orally fed once a day for five days every week with a GPR119 ligand (10 mg/kg and 30 mg/kg), which was suspended in 40% PEG400, in combination with the MCD diet. After terminating the experiment, the experimental animals fasted for 12 hours or more. Subsequently, blood and liver samples were collected from the animals, which had been anesthetized with diethyl ether, and then washed with a 0.1 M phosphate buffered saline (pH 7.4), followed by being weighed. […] Serum Lactate dehydrogenase (LDH) from the experimental animals raised for 4 weeks was measured as follows. The serum LDH was measured using a commercially available measurement kit (Bio Clinical system). […] Steatosis, ballooning, and lobular inflammation were blindly assessed by pathologists.

MCP-1 mRNA = MCP-1 mRNA after LPS stimulation in RAW264.7 cells (real time PCR); assay type: cell-based, mouse; details: RAW264.7, 3 μM, 10 ng/ml LPS, 6 hours
Method: (§1) RAW264.7 cells cultured in 6-well plates were stabilized for 12 hours in a serum-free medium, and then exposed to 3 μM of MBX-2982 and 10 ng/ml of LPS. After 6 hours, RNA samples extracted with TRIZOL were reversely transcribed using a cDNA synthesis PCR kit to synthesize cDNAs. The cDNAs obtained through reverse transcription were used as a template, and primers for 5′ and 3′ flanking sequences of cDNAs to be amplified were as follows. Real time PCR (Mini-Opticon, Bio-Rad, US) was carried out and the expression levels of mRNA were investigated.
(§2) Inflammatory marker change results evaluated after LPS stimulation for RAW264.7 cells, which were derived from a mouse macrophage cell line, are illustrated in FIG. 18.

TNF-alpha mRNA = TNF-alpha mRNA after LPS stimulation in RAW264.7 cells (real time PCR); assay type: cell-based, mouse; details: RAW264.7, 3 μM, 10 ng/ml LPS, 6 hours
Method: as §1, §2

Compound: CCc1cnc(N2CCC(c3nc(COc4ccc(-n5cnnn5)cc4)cs3)CC2)nc1 [MBX2982, 4-((4-(1H-tetrazol-1-yl)phenoxy)methyl)-2-(1-(5-ethylpyrimidin-2-yl)piperidin-4-yl)thiazole]
- lobular inflammation (NAFLD activity score) [1]: inhibited
- other markers (steatosis, ballooning, serum LDH) [1]: did not show significant changes
- expression of MCP-1 mRNA (MCP-1 mRNA): decreased
- expression of TNF-alpha mRNA (TNF-alpha mRNA): decreased
